Laboratory results from patent publication US20220064105A1, “CRYSTALLINE EDG-2 RECEPTOR ANTAGONIST AND METHODS OF MAKING” (Sanofi, priority 2020, published 2022).
Values after ≈ are worked out from the molar mass of the structure shown. Marks after values point to notes of the source that are not given here. Values belong to the molecule of their own block, whether it stands above or below them.

How the values were obtained:
[1] = Solubility of Compound I in solvents at room temperature (about 25° C.); type: physicochemical; settings: thermodynamic from solid
Protocol: Compound I was dissolved in a variety of solvents at room temperature (about 25° C.) to provide solutions of Compound I with a maximum concentration of 10 mg/mL. The input material in these experiments was a mixture of polymorphic forms 1, 2, and 3.
The maximum concentration used in this set of experiments was 10 mg/mL. Solubility was highest in THF at >10 mg/mL. […] The solubility was estimated at less than 2 mg/mL for: 1-butanol, butyl acetate, hexane, ethanol, ethyl acetate, isobutyl alcohol, 1-pentanol, isopropanol, acetonitrile, dichloromethane, chloroform, and water.

[2] = Estimated hot solubility in solvents at elevated temperature (approximately solvent boiling point); type: physicochemical; settings: thermodynamic from solid, read-out: Hot Solubility (est)
Protocol: Compound I was dissolved in a variety of solvents at elevated temperature (approximately at solvent boiling point) to provide solutions of Compound I with a maximum concentration of 15 mg/mL. The input material in these experiments was a mixture of polymorphic forms 1, 2, and 3.
When concentrations of Compound I was greater than 2 mg/mL, the solutions were filtered and evaporated at 25° C. to isolate the solid.

[3] = tested on: mouse model of skin fibrosis; settings: cited from earlier work
[4] = tested on: patients with diffuse cutaneous systemic sclerosis SSc (dcSSc); settings: cited from earlier work
[5] = Slurry stability study at room temperature (25° C.), 4 weeks, resulting form by FTIR; type: physicochemical; settings: for Final form after slurry: 25° C., 4 weeks, FTIR
Protocol: Slurry stability Maturation studies were initially conducted for the purpose of identifying the most […] stable form at room temperature (25° C.).
In this set of experiments, both the individual forms and mixtures of forms were slurried in several solvents for 4 weeks, then filtered and analyzed to determine the resulting form. The first set of experiments included pure Form 1, Form 2, Form 3, and mixtures of these forms in equal amounts. The solvents included methanol, ethyl acetate, MEK, and methyl THF in order to investigate a range of solvent polarity. Additional experiments were conducted with a mixture of Form 1 and Form 4 in MEK and methanol.
Analysis was performed by FTIR due to ease of analysis for small quantities. It is interesting to note that the acid carbonyl is shifted to a different location for each polymorph. The results for the first set of experiments are listed below, comparing the starting form with the final form.

[6] = Slurry conversion studies at 40-70° C. with Forms 1 and 2; type: physicochemical
Protocol: Slurry conversation studies were also conducted at 40-70° C. with Forms 1 and 2 to determine a transition temperature between the forms. A mixture of Form 1 and Form 2 at a (1:1 ratio) was slurried at 40° C., 50° C., 60° C., and 70° C. in two different solvents at each temperature and then analyzed to determine the direction of transformation. At 40° C. and 50° C., Methanol and MEK were used. At 60° C. and 70° C. MEK and 1-Pentanol were used.

[7] = Physical stability of solid state forms at 80° C./75% RH, by FTIR; type: physicochemical; settings: 1 week (7 days), open glass vials
Protocol: The physical stability of Forms 1, 2, and 3 was investigated at 80° C./75% RH in order to determine if interconversion was observed. The samples were examined by FTIR after stressing 1 week in open glass vials.

[8] = Solubility of polymorphs at pH 7.4 in phosphate buffer at 25° C.; type: physicochemical; settings: pH 7.4 phosphate buffer; for Concentration (equilibrium solubility): 24 hr
Protocol: The solubility of the different polymorphs was determined at pH 7.4 in phosphate buffer at 25° C. Samples were analyzed as a function of time for each form to determine the equilibrium values. The residual solids from each sample were analyzed to verify that the form was unchanged during the experiment. The concentration (mg/mL) versus time data is listed below for each form: […]

[9] = Dynamic vapor sorption (DVS); type: physicochemical; settings: 25° C.
Protocol: Moisture sorption/desorption isotherms are recorded on a DVS-1 from SURFACE MEASUREMENT SYSTEMS. Two cycles are run at 25° C., in which the Relative Humidity (RH) is stepped from 0 to 95% and back to 0%. The data is evaluated with the software DVSWin V. 2.15.

[10] = slurried in 1-pentanol at 60° C.
[11] = slurried in 1-pentanol at 70° C.

SMILES: COc1ccc(C(=O)NC2(C(=O)O)Cc3ccccc3C2)cc1OCCc1cccc(C)c1 [Compound I, 2-(4-methoxy-3-(3-methylphenethoxy)benzamido)-2,3-dihydro-1H-indene-2-carboxylic acid]
solubility ([1]; organic solvent or mixture, 1-butanol, read-out: Solubility (estimated)): < 2000 µg/mL
solubility ([1]; organic solvent or mixture, 1-pentanol, read-out: Solubility (estimated)): < 2000 µg/mL
solubility ([1]; organic solvent or mixture, MEK, read-out: Solubility): 4000 to 6000 µg/mL (≈ 8.98 to 13.5 mM)
solubility ([1]; organic solvent or mixture, THF, read-out: Solubility): > 10000 µg/mL
solubility ([1]; organic solvent or mixture, acetone, read-out: Solubility): 4000 to 6000 µg/mL (≈ 8.98 to 13.5 mM)
solubility ([1]; organic solvent or mixture, acetonitrile, read-out: Solubility (estimated)): < 2000 µg/mL
solubility ([1]; organic solvent or mixture, butyl acetate, read-out: Solubility (estimated)): < 2000 µg/mL
solubility ([1]; organic solvent or mixture, chloroform, read-out: Solubility (estimated)): < 2000 µg/mL
solubility ([1]; organic solvent or mixture, dichloromethane, read-out: Solubility (estimated)): < 2000 µg/mL
solubility ([1]; organic solvent or mixture, ethanol, read-out: Solubility (estimated)): < 2000 µg/mL
solubility ([1]; organic solvent or mixture, ethyl acetate, read-out: Solubility (estimated)): < 2000 µg/mL
solubility ([1]; organic solvent or mixture, hexane, read-out: Solubility (estimated)): < 2000 µg/mL
solubility ([1]; organic solvent or mixture, isobutyl alcohol, read-out: Solubility (estimated)): < 2000 µg/mL
solubility ([1]; organic solvent or mixture, isopropanol, read-out: Solubility (estimated)): < 2000 µg/mL
solubility ([1]; organic solvent or mixture, methanol, read-out: Solubility): 2000 to 3000 µg/mL (≈ 4.49 to 6.73 mM)
solubility ([1]; water, read-out: Solubility (estimated)): < 2000 µg/mL
solubility ([2]; 40 °C, organic solvent or mixture, Dichloromethane (DCM)): < 4000 µg/mL
solubility ([2]; 56 °C, organic solvent or mixture, Acetone): > 10000 µg/mL
solubility ([2]; 61 °C, organic solvent or mixture, Chloroform): 4000 to 5000 µg/mL (≈ 8.98 to 11.2 mM)
solubility ([2]; 65 °C, organic solvent or mixture, Methanol): > 10000 µg/mL
solubility ([2]; 69 °C, organic solvent or mixture, Hexane): < 2000 µg/mL
solubility ([2]; 77 °C, organic solvent or mixture, Ethyl Acetate): 5000 to 10000 µg/mL (≈ 11.2 to 22.4 mM)
solubility ([2]; 78 °C, organic solvent or mixture, Ethanol): > 10000 µg/mL
solubility ([2]; 80 °C, organic solvent or mixture, Methyl Ethyl Ketone (MEK)): > 15000 µg/mL
solubility ([2]; 82 °C, organic solvent or mixture, 2-Propanol): 7000 to 10000 µg/mL (≈ 15.7 to 22.4 mM)
solubility ([2]; 82 °C, organic solvent or mixture, Acetonitrile): 7000 to 10000 µg/mL (≈ 15.7 to 22.4 mM)
solubility ([2]; 100 °C, Water): < 2000 µg/mL
solubility ([2]; 108 °C, organic solvent or mixture, Isobutyl Alcohol): > 10000 µg/mL
solubility ([2]; 118 °C, organic solvent or mixture, 1-Butanol): > 10000 µg/mL
solubility ([2]; 126 °C, organic solvent or mixture, Butyl Acetate): ~10000 µg/mL (≈ 22.4 mM)
solubility ([2]; 138 °C, organic solvent or mixture, 1-Pentanol): > 10000 µg/mL
Collagen content [3]: reduced collagen content
Dermal thickening [3]: reversed dermal thickening
Myofibroblast differentiation [3]: significantly inhibited myofibroblast differentiation
Outcome measures [4]: improved outcome measures
Target engagement [4]: demonstrated target engagement
Tolerability [4]: well tolerated

SMILES: COc1ccc(C(=O)NC2(C(=O)O)Cc3ccccc3C2)cc1OCCc1cccc(C)c1 [Form 2, 2-(4-methoxy-3-(3-methylphenethoxy)benzamido)-2,3-dihydro-1H-indene-2-carboxylic acid]
Final form after slurry ([5]; slurried in MEK): converts to crystalline Form 1
Final form after slurry ([5]; slurried in ethyl acetate): Form 2
Final form after slurry ([5]; slurried in methanol): Form 2
Final form after slurry ([5]; slurried in methyl THF): Form 2
Resulting form after slurry ([6]; slurried in MEK at 40° C.): converts to crystalline Form 1
Resulting form after slurry ([6]; slurried in MEK at 50° C.): converts to crystalline Form 1
Resulting form after slurry ([6]; slurried in methanol at 40° C.): converts to crystalline Form 1
Resulting form after slurry ([6]; slurried in methanol at 50° C.): converts to crystalline Form 1
Change in FTIR spectrum after storage [7]: unchanged FTIR
24 hour solubility greater than Form 1 ([8]; 24 hours): more than 30%
Concentration (solubility) ([8]; 1 hr): 0.034 mg/mL
Concentration (solubility) ([8]; 2 hr): 0.039 mg/mL
Concentration (solubility) ([8]; 3 hr): 0.043 mg/mL
Concentration (equilibrium solubility) [8]: 0.057* mg/mL

SMILES: COc1ccc(C(=O)NC2(C(=O)O)Cc3ccccc3C2)cc1OCCc1cccc(C)c1 [Form 3, 2-(4-methoxy-3-(3-methylphenethoxy)benzamido)-2,3-dihydro-1H-indene-2-carboxylic acid]
Final form after slurry ([5]; slurried in MEK): converts to crystalline Form 1
Final form after slurry ([5]; slurried in ethyl acetate): converts to crystalline Form 1
Final form after slurry ([5]; slurried in methanol): converts to crystalline Form 1
Final form after slurry ([5]; slurried in methyl THF): converts to crystalline Form 1
Change in FTIR spectrum after storage [7]: unchanged FTIR
Equilibrium solubility relative to Form 1 ([8]; 24 hours): more than double
Concentration (solubility) ([8]; 1 hr): 0.083 mg/mL
Concentration (solubility) ([8]; 2 hr): 0.093 mg/mL
Concentration (solubility) ([8]; 3 hr): 0.095 mg/mL
Concentration (equilibrium solubility) [8]: 0.097 mg/mL

SMILES: COc1ccc(C(=O)NC2(C(=O)O)Cc3ccccc3C2)cc1OCCc1cccc(C)c1 [mixtures of Form 4 and Form 1]
Final form after slurry ([5]; slurried in MEK): convert to Form 1
Final form after slurry ([5]; slurried in methanol): convert to Form 1

SMILES: COc1ccc(C(=O)NC2(C(=O)O)Cc3ccccc3C2)cc1OCCc1cccc(C)c1 [mixture of Form 1 and Form 2]
Resulting form after slurry [6, 10]: Form 2
Resulting form after slurry [6, 11]: Form 2
Resulting form after slurry ([6]; slurried in MEK at 40° C.): Form 1
Resulting form after slurry ([6]; slurried in MEK at 50° C.): Form 1
Resulting form after slurry ([6]; slurried in MEK at 60° C.): Form 2
Resulting form after slurry ([6]; slurried in MEK at 70° C.): Form 2
Resulting form after slurry ([6]; slurried in methanol at 40° C.): Form 1
Resulting form after slurry ([6]; slurried in methanol at 50° C.): Form 1

Other lines, results leading:

Final form after slurry ([5]; slurried in MEK): Form 1
Final form after slurry ([5]; slurried in methanol): Form 1
Final form after slurry ([5]; slurried in methyl THF): Form 1
SMILES: COc1ccc(C(=O)NC2(C(=O)O)Cc3ccccc3C2)cc1OCCc1cccc(C)c1 [Forms 1, 2, 3]

Relative stability of the crystal forms ([5]; room temperature (25° C.), from slurry data set): most stable form
Final form after slurry ([5]; slurried in MEK): Form 1
Final form after slurry ([5]; slurried in ethyl acetate): Form 1
Final form after slurry ([5]; slurried in methanol): Form 1
Final form after slurry ([5]; slurried in methyl THF): Form 1
Resulting form after slurry [6, 10]: converts to crystalline Form 2
Resulting form after slurry [6, 11]: converts to crystalline Form 2
Resulting form after slurry ([6]; slurried in MEK at 60° C.): converts to crystalline Form 2
Resulting form after slurry ([6]; slurried in MEK at 70° C.): converts to crystalline Form 2
Reversible water uptake [9]: less than 1%
Change in FTIR spectrum after storage [7]: unchanged FTIR
Concentration (solubility) ([8]; 1 hr): 0.042 mg/mL
Concentration (solubility) ([8]; 2 hr): 0.041 mg/mL
Concentration (solubility) ([8]; 3 hr): 0.042 mg/mL
Concentration (equilibrium solubility) [8]: 0.042 mg/mL
SMILES: COc1ccc(C(=O)NC2(C(=O)O)Cc3ccccc3C2)cc1OCCc1cccc(C)c1 [Form 1, 2-(4-methoxy-3-(3-methylphenethoxy)benzamido)-2,3-dihydro-1H-indene-2-carboxylic acid]

Equilibrium solubility relative to Form 1 ([8]; 24 hours): more than double
Concentration (solubility) ([8]; 1 hr): 0.079 mg/mL
Concentration (solubility) ([8]; 2 hr): 0.089 mg/mL
Concentration (solubility) ([8]; 3 hr): 0.105 mg/mL
Concentration (equilibrium solubility) [8]: 0.102 mg/mL
SMILES: COc1ccc(C(=O)NC2(C(=O)O)Cc3ccccc3C2)cc1OCCc1cccc(C)c1 [Form 4, 2-(4-methoxy-3-(3-methylphenethoxy)benzamido)-2,3-dihydro-1H-indene-2-carboxylic acid]
